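Method: 48-hour compound exposure of cells in 96-well plates, five concentrations, linear interpolation of endpoints. At the GI50, growth is halved. Definition used: TGI = concentration required for complete inhibition of growth.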
Key:
Experiment in all cases: inhibition of tumour cell growth, NCI panel, 48 h
NCI-H460 lung = tested on: NCI-H460 lung
NCI-H522 lung = tested on: NCI-H522 lung
NCI/ADR-RES ovarian = tested on: NCI/ADR-RES ovarian
OVCAR-3 ovarian = tested on: OVCAR-3 ovarian
OVCAR-5 ovarian = tested on: OVCAR-5 ovarian
OVCAR-8 ovarian = tested on: OVCAR-8 ovarian
PC-3 prostate = tested on: PC-3 prostate
RPMI-8226 leukemia = tested on: RPMI-8226 leukemia
RXF 393 renal = tested on: RXF 393 renal
SF-268 CNS = tested on: SF-268 CNS
SF-295 CNS = tested on: SF-295 CNS
SF-539 CNS = tested on: SF-539 CNS
SK-MEL-2 melanoma = tested on: SK-MEL-2 melanoma
SK-MEL-28 melanoma = tested on: SK-MEL-28 melanoma
SK-MEL-5 melanoma = tested on: SK-MEL-5 melanoma
SK-OV-3 ovarian = tested on: SK-OV-3 ovarian
SN12C renal = tested on: SN12C renal
SNB-19 CNS = tested on: SNB-19 CNS
SNB-75 CNS = tested on: SNB-75 CNS
SR leukemia = tested on: SR leukemia
SW-620 colon = tested on: SW-620 colon
T-47D breast = tested on: T-47D breast
TK-10 renal = tested on: TK-10 renal
U251 CNS = tested on: U251 CNS
UACC-257 melanoma = tested on: UACC-257 melanoma
UACC-62 melanoma = tested on: UACC-62 melanoma
UO-31 renal = tested on: UO-31 renal

COc1ccc2c(Cl)cc(NC(=O)Nc3c(C)cccc3C)nc2c1
GI50 (NCI-H460 lung): 4.02 µM
TGI (NCI-H460 lung): > 100 µM
GI50 (NCI-H522 lung): > 100 µM
TGI (NCI-H522 lung): > 100 µM
GI50 (NCI/ADR-RES ovarian): > 100 µM
TGI (NCI/ADR-RES ovarian): > 100 µM
GI50 (OVCAR-3 ovarian): 23.5 µM
TGI (OVCAR-3 ovarian): > 100 µM
GI50 (OVCAR-5 ovarian): > 100 µM
TGI (OVCAR-5 ovarian): > 100 µM
GI50 (OVCAR-8 ovarian): 24.7 µM
TGI (OVCAR-8 ovarian): > 100 µM
GI50 (PC-3 prostate): 24.5 µM
TGI (PC-3 prostate): > 100 µM
GI50 (RPMI-8226 leukemia): > 100 µM
TGI (RPMI-8226 leukemia): > 100 µM
GI50 (RXF 393 renal): 4.97 µM
TGI (RXF 393 renal): 24.8 µM
GI50 (SF-268 CNS): 39.7 µM
TGI (SF-268 CNS): > 100 µM
GI50 (SF-295 CNS): 4.31 µM
TGI (SF-295 CNS): 43.9 µM
GI50 (SF-539 CNS): 19.8 µM
TGI (SF-539 CNS): 46.3 µM
GI50 (SK-MEL-2 melanoma): 28.6 µM
TGI (SK-MEL-2 melanoma): 85 µM
GI50 (SK-MEL-28 melanoma): 31 µM
TGI (SK-MEL-28 melanoma): > 100 µM
GI50 (SK-MEL-5 melanoma): 18.1 µM
TGI (SK-MEL-5 melanoma): > 100 µM
GI50 (SK-OV-3 ovarian): 4.37 µM
TGI (SK-OV-3 ovarian): 83 µM
GI50 (SN12C renal): 15.6 µM
TGI (SN12C renal): > 100 µM
GI50 (SNB-19 CNS): 72.7 µM
TGI (SNB-19 CNS): > 100 µM
GI50 (SNB-75 CNS): 1.47 µM
TGI (SNB-75 CNS): 6.01 µM
GI50 (SR leukemia): 27.5 µM
TGI (SR leukemia): > 100 µM
GI50 (SW-620 colon): 38.9 µM
TGI (SW-620 colon): > 100 µM
GI50 (T-47D breast): 22.5 µM
TGI (T-47D breast): > 100 µM
GI50 (TK-10 renal): 11.2 µM
TGI (TK-10 renal): 58.2 µM
GI50 (U251 CNS): 13.7 µM
TGI (U251 CNS): 39.2 µM
GI50 (UACC-257 melanoma): 20 µM
TGI (UACC-257 melanoma): > 100 µM
GI50 (UACC-62 melanoma): 64.3 µM
TGI (UACC-62 melanoma): > 100 µM
GI50 (UO-31 renal): 3 µM
TGI (UO-31 renal): 12.7 µM
